“And” between values parts separate entries of the source, which are not always exact repeats. Equal values may be shown once.
Test system: P. falciparum 3D7 growth, pLDH absorbance
Experiment: blood-stage malaria parasite growth potency – strain 3D7, dose response (AID 2305)

O=C(CSc1nc2ccccc2c(=O)n1C1CC1)Nc1cc(C(F)(F)F)ccc1Cl
IC50: 0.11 µM

CC(C)Cn1c2ccccc2c2nc3nc(N)nc(N)c3nc21
IC50: 0.72 µM

C[C@H](NC(=O)[C@H](Cc1ccccc1)NC(=O)OC(C)(C)C)C(=O)N[C@@H](CC1CCCCC1)C(O)CN (some centres undefined)
IC50: 0.73 µM

COc1ccc(-c2nc3ccc(C)nc3nc2-c2ccc(OC)cc2)cc1
IC50: 1.11 µM

Cc1nc2nc(N)nc(N)c2c(C)c1Cc1ccc(C(F)(F)F)cc1
IC50: 0.75 µM

CCOc1cc(Cl)c(C(C)NC(=O)c2ccccc2)cc1OCC (centres undefined)
IC50: 0.88 µM

CC(=O)c1c[nH]c(C(=O)Nc2ccc(-c3cn4ccccc4n3)cc2)c1
IC50: 0.89 µM

CN1CCN(c2ccnc3ccc(NC(=O)Nc4ccccc4Br)cc23)CC1
IC50: 0.37 µM

c1ccc(-c2[nH]ncc2Nc2ccnc3ccccc23)nc1
IC50: 0.82 µM

Cc1cc(O)c(CN(C)Cc2ccc(N(C)C)cc2)cc1C(C)C
IC50: 0.55 µM

CCOC(=O)N(C)/N=C/[C@H](CCc1ccccc1)NC(=O)[C@H](CC(C)C)NC(=O)c1cc2cccc(OC)c2o1
IC50: 0.56 µM

COCC(C)n1c(C)cc(C(=O)CSc2nnc(Nc3ccccc3)s2)c1C (centres undefined)
IC50: 0.74 µM

Nc1ccc(-c2ccc3ccnc(N)c3c2)cn1
IC50: 0.35 µM

COc1ccc(Nc2nc(NN=Cc3cc(Br)c(O)cc3O)nc(Nc3ccc([N+](=O)[O-])cc3)n2)cc1
IC50: 0.9 µM

CC(C)c1ccc(Cn2cc(-c3ccncc3)c3cc(OCc4ccccc4)ccc32)cc1
IC50: 0.71 µM

CCN(CC)CCNC(=O)c1ccc(NC(=O)c2cc(-c3ccncc3)nc3ccccc23)cc1
IC50: 0.77 µM

CCN(CC)CCN(Cc1ccc(-c2ccc(Br)cc2)cc1)C(=O)Cn1c(CCc2cccc(F)c2F)nc(=O)c2ccccc21
IC50: 0.79 µM

CC(CCCCC(=O)Nc1ccc(CC(C)NCCc2cccc(Cl)c2)cc1)NCCc1cccc(Cl)c1 (centres undefined)
IC50: 1.01 µM

Cc1ccccc1C1CCN(C2CCC(NC(=O)/C=C/c3ccc(C#N)cc3)CC2)CC1 (centres undefined)
IC50: 1.17 µM

Cc1cccc2[nH]c(-c3ccc(-c4cccc(NC(=O)Nc5ccc(Cl)cc5)c4)s3)nc12
IC50: 0.52 µM

O=C(Nc1ccccc1OC(F)(F)F)NC1CCC(CN2CCC(c3c[nH]c4ccccc34)CC2)CC1 (centres undefined)
IC50: 0.37 µM and 0.8 µM

CC[C@H]1CN2CC[C@H]1C[C@H]2C(O)c1cc(OC)nc2ccccc12 (some centres undefined)
IC50: 0.14 µM

CCc1ccccc1N1CCN(CCCCNC(=O)c2ccc(NC(=O)c3ccc(Cl)cc3)cc2)CC1
IC50: 0.96 µM

O=S(=O)(c1ccc(OCc2ccc(Cl)cc2)cc1)c1cc2c(cc1O)CCN(C1CCC1)CC2
IC50: 0.94 µM

OCc1ccc(-c2cncc(Nc3cccc(Cl)c3)c2)cc1
IC50: 0.07 µM

O=C(c1cccs1)N1N=C(c2cccs2)CC1c1cccc([N+](=O)[O-])c1 (centres undefined)
IC50: 0.82 µM

Oc1ccccc1CN1CCC(CCOC(c2ccccc2)c2ccc(Cl)cc2)CC1 (centres undefined)
IC50: 0.74 µM

O=C(NC1CCCCC1)c1ccc(O)c(-c2cccc(C(F)(F)F)c2)c1
IC50: 0.71 µM

Cc1cc(C2CCN(CCCCNC(=O)c3ccc(NC(=O)c4ccc(Cl)cc4)cc3)CC2)c(C)cc1OCCN(C)C
IC50: 0.77 µM

COc1cc2c(C3CCN(CC4CCN(C(=O)/C=C/c5ccc(Cl)c(Cl)c5)CC4)CC3)c[nH]c2cn1
IC50: 0.73 µM

CC(C)CC(=O)N1CCNC[C@@H]1C(=O)NCc1ccc(Cl)c(Cl)c1
IC50: 0.95 µM

CCCCCC(C)C(C)c1cc(OC(N)=O)c2c(c1)OC(C)(C)C=C2c1ccncc1 (centres undefined)
IC50: 0.9 µM

O=C(NCC1CCC(C(=O)NC2CCCc3ccccc32)CC1)c1ccc(O)c(-c2ccc(Cl)c(Cl)c2)c1 (centres undefined)
IC50: 1.02 µM

COc1cc(NCCCCCNc2cc(Cl)nc3ccccc23)nc2ccccc12
IC50: 0.78 µM

NC(Cc1cccc(I)c1)C(=O)NCC1CCCO1 (centres undefined)
IC50: 0.89 µM

NC1=NC2(CCCC2)N(c2ccc(Cl)cc2)C(N)=N1
IC50: 0.41 µM

O=C(Nc1cccc(-c2ccc(-c3nc4ccc(F)cc4[nH]3)s2)c1)c1ccncc1
IC50: 0.7 µM

COc1ccc(CNc2ncc(-c3ccsc3)c(-c3nccs3)n2)cc1OC
IC50: 0.09 µM

Cc1cc(C(=O)OCC(=O)Nc2c(C)n(C)n(-c3ccccc3)c2=O)c(C)n1-c1ccc(F)cc1
IC50: 0.05 µM

CC(=O)N/N=C/[C@H](CCc1ccccc1)NC(=O)[C@H](CC(C)C)NC(=O)c1ccc(OCCN2CCOCC2)cc1
IC50: 0.22 µM

CCc1nc2nc(C)cc(Nc3ccc4c(c3)OCCO4)n2n1
IC50: 1.29 µM

Cc1ccc(NC(=S)N2CCCN(CCCCCNC(=O)/C=C/c3ccc(Cl)c(Cl)c3)CC2)cc1Cl
IC50: 0.92 µM

CCc1c(CCNCCCCCNCCc2ccc(OC)c(OC)c2CC)ccc(OC)c1OC
IC50: 1.11 µM

O=C(CCCCCNC(=O)c1ccc(O)c(-c2ccc(Cl)c(Cl)c2)c1)NC1CCCc2ccccc21 (centres undefined)
IC50: 0.76 µM

Cc1c(C)n(C2CCCCC2)c2ncnc(OC3CCN(CC(=O)N4CCCC4)CC3)c12
IC50: 1.45 µM

CCCCc1ccc(CCNCCCCCCNCCc2ccc(O)c(O)c2)cc1
IC50: 1.07 µM

CN(C)c1ccnc2ccc(NC(=O)Nc3ccnc4ccccc34)cc12
IC50: 0.13 µM

COc1ccc(NC(=O)/C=C/c2ccccc2Cl)cc1OCCN1CCC(c2nc3ccccc3[nH]2)CC1
IC50: 0.86 µM

CCOc1ccc2nc(C)cc(NN=Cc3cccc(F)c3)c2c1
IC50: 0.74 µM
